tested on: MMTV-HER2/neu (YD) Id1−/− tumor cells; assay: MMTV-HER2/neu (YD) Id1−/− allograft model, osmotic pumps, with and without 17-AAG; format: in vivo, mouse; conditions: Id1-PCAO 7 nmol/d s.c. pumps; F3 and Id1-AO each 20 nmol/d; 17-AAG i.p. 3 consecutive days per week; FIG. 7
Excerpt: Proc Natl Acad Sci USA 100, 12337-42 (2003)), perhaps due to the requirement of Hsp90 for maintaining Hif1-alpha or HER2/neu stability. Id1-PCAOs were therefore tested in combination with 17-AAG in the MMTV-HER2/neu (YD) Id1-/- allograft model. The Id1-PCAO was delivered in this prolonged experiment via subcutaneously implanted osmotic pumps (7 nmol/d). 17-AAG was given by intraperitoneal injection according to an established protocol, on 3 consecutive days per week after tumor establishment. As controls, saline or the un-conjugated components of the Id1-PCAO (F3-peptide and Id1-AO each at 20 nmol/d) were administered. […] To further control for non-specific effects we repeated the experiment using the same tumor model and added […] which was delivered at the same rate as the Id1-PCAO (7 nmol/d) and the F3-peptide without addition of Id1-AO (20 nmol/d) as control substances. […] The decrease in Id1-positive cells after administration of Id1-PCAO alone was less dramatic than in the intravenous protocol described above. This might be due to the slight decrease in dosage and the changed route of administration (s.c. vs. i.v.). […] Alternatively, animals were implanted s.c. with osmotic pumps (Durect Corp., Cupertino, Calif.) that delivered 7 nmol/d Id1-PCAO (3.5 mg/kg BW) in TBS over a 14 day period. Controls received 20 nmol/d F3-peptide plus 20 nmol/d Id1-AO (in TBS) or TBS. 2×106 MMTV-HER2/neu (YD) Id1-/- tumor cells were injected into the left flank 24 h after implantation of the pumps. After the 14 days treatment period, pumps were replaced using a model with a work period of 7 days. […] Control animals received DMSO:EPL 1:1 i.p at the same schedule. Tumor size was measured using a calliper. Volume was calculated as V=(/6×longest diameter×perpendicular diameter2). Image acquisition and analysis: Epifluorescence, bright field and phase contrast images were acquired using Zeiss Axiostar 200 microscopes. Leica laser confocal microscopes were used for co-localisation studies. For quantification, large fields of the tissue sections were acquired using an automated image acquisition and montaging system (Zeiss Axiostar 200M microscope with MetaMorph Software, Molecular Devices, Sunnyvale, Calif.). […] Three or 4 large field images were used to quantify each section. Stained areas were quantified using MetaMorph or ImageJ software (http://rsb.info.nih.gov/ij/). Images were threshholded and stained area (CD31) was calculated or particles per field were counted (Id1 or Hif1 positive cells). To quantify extent of haemorrhage, H&E whole tumor sections were imaged with a 5× objective and evaluated using the colour threshold function of the Metamorph software.

Row | Compound | tumor growth, agent alone
1 | C=CCNC1=C2C[C@@H](C)C[C@H](OC)[C@H](O)[C@@H](C)/C=C(\C)[C@H](OC(N)=O)[C@@H](OC)/C=C\C=C(/C)C(=O)NC(=CC1=O)C2=O [17-AAG, 17-(allylamino)-17-demethoxygeldanamycin] | delayed tumor growth

same assay, conditions: mouse, in vivo

Row | Compound | Hif1-alpha expression | Id1-positive endothelial cells in the tumor, agent alone | vascular density
2 | C=CCNC1=C2C[C@@H](C)C[C@H](OC)[C@H](O)[C@@H](C)/C=C(\C)[C@H](OC(N)=O)[C@@H](OC)/C=C\C=C(/C)C(=O)NC(=CC1=O)C2=O [17-AAG, 17-(allylamino)-17-demethoxygeldanamycin] | counteracted this response | decrease of Id1-positive endothelial cells in the tumor | decreased vascular density

tested on: tumor endothelium of high-grade malignant glioma; assay: Accumulation of FITC-labeled Grp78-GMBS-ASId1 in high-grade malignant glioma mouse model; format: in vivo; conditions: retro-orbital injection, four hours post injection
Excerpt: In a further specific example, the therapeutic agent combines a Grp78 targeting peptide with an Id1 targeting antisense oligonucleotide. A therapeutic agent of this type was synthesized using the Grp-78 targeting peptide of Seq. ID No. 4, GMBS as the HBL, and Id1 antisense of Seq. ID No. 2, labeled with FITC and injected retro-orbitally into a mouse model with a high-grade malignant glioma. Four hours post injection the mouse was sacrificed, and tissue was processed for imaging.

Row | Compound | accumulation in imaged tissue | blood brain barrier crossing
3 | Grp78-GMBS-ASId1: Grp-78 targeting peptide of Seq. ID No. 4, GMBS as the HBL, Id1 antisense of Seq. ID No. 2, labeled with FITC (chain WIFPWIQL; antisense gcaccagctccttgaggcgugag; GMBS linker, FITC label; GRP78 homing peptide; antisense oligonucleotide targeting ID1.) | accumulate around tumor blood vessels | crossed the blood brain barrier

tested on: SVR (ATCC CRL-2280, a murine endothelial cell line) tumor allograft; assay: In vivo phage display panning, angiosarcoma model; parameters: species or system mouse; conditions: tumors resected 24 h post phage injection, 3-4 rounds of panning
Description: (§1) To identify peptide sequences displaying homing potential to specific tumors or to the vasculature of specific tumors, in vivo phage display panning was performed. Utilizing commercially available M13-based phage libraries (PhD-7 Prod# E8100S and PhD-C7C E8120S, New England Biolabs, Ipswich, Mass.) phage were isolated that were enriched after 3-4 rounds of panning in different tumor models. These phage particles display surface peptides that potentially confer homing and cellular uptake capabilities.
Panning was conducted in SVR (ATCC CRL-2280, a murine endothelial cell line) tumor allograft bearing mice. Tumors were resected 24 h post phage injection.

Row | Compound | Frequency of enriched sequence
4 | 12 (TLSKQST; Angiosarcoma homing probe) [compound 12] | 1/15
5 | 14 (ERVLMQV; Angiosarcoma homing probe) [compound 14] | 1/15
6 | 13 (TSLKMQV; Angiosarcoma homing probe) [compound 13] | 1/15
7 | 11 (MFEPVLP; Angiosarcoma homing probe) [compound 11] | 1/15
8 | 10 (FPGGYTP; Angiosarcoma homing probe) [compound 10] | 11/15

tested on: 4T1 (ATCC CRL-2539) tumor allograft; assay: In vivo phage display panning, breast carcinoma model, tumor cell homing phage; parameters: species or system mouse; conditions: tumors resected 24 h post phage injection, 3-4 rounds of panning
Description: as §1
Panning was conducted in 4T1 (ATCC CRL-2539) tumor allograft bearing mice. Tumors were resected 24 h post phage injection.

Row | Compound | Frequency of enriched sequence
9 | 18 (KYESAPT; Breast Carcinoma homing probe) [compound 18] | 1/12
10 | 15 (KWGSNNL; Breast Carcinoma homing probe) [compound 15] | 4/12
11 | 19 (TSMTSYR; Breast Carcinoma homing probe) [compound 19] | 1/12
12 | 21 (HTPMALE; Breast Carcinoma homing probe) [compound 21] | 1/12
13 | 20 (EKNLTRP; Breast Carcinoma homing probe) [compound 20] | 1/12
14 | 16 (YSMPAPV; Breast Carcinoma homing probe) [compound 16] | 2/12
15 | 17 (DSTRPHY; Breast Carcinoma homing probe) [compound 17] | 2/12

tested on: 4T1 (ATCC CRL-2539) tumor allograft; assay: In vivo phage display panning, breast carcinoma model, tumor vascular homing phage; parameters: species or system mouse; conditions: tumors resected 5-7 h post phage injection, 3-4 rounds of panning
Description: as §1
Panning was conducted in 4T1 (ATCC CRL-2539) tumor allograft bearing mice. Tumors were resected 5-7 h post phage injection.

Row | Compound | Frequency of enriched sequence
16 | 27 (HESTWGP; Breast carcinoma tumor vascular homing probe) [compound 27] | 1/12
17 | 24 (NLLAPAG; Breast carcinoma tumor vascular homing probe) [compound 24] | 1/12
18 | 29 (CLPRHDPYC) [compound 29] | 1/12
19 | 28 (CDPRNPNWC; Breast carcinoma tumor vascular homing probe) [compound 28] | 1/12
20 | 30 (CPAGQNAHC) [compound 30] | 1/12
21 | 22 (GHSKAMY; Breast carcinoma tumor vascular homing probe) [compound 22] | 4/12
22 | 23 (GHGASIS; Breast carcinoma tumor vascular homing probe) [compound 23] | 1/12
23 | 26 (AMPLPVP; Breast carcinoma tumor vascular homing probe) [compound 26] | 1/12
24 | 25 (HDLPAVR; Breast carcinoma tumor vascular homing probe) [compound 25] | 1/12

— patent US9393317B2, “Peptide-conjugated oligonucleotide therapeutic and method of making and using same” (Sloan-Kettering Institute for Cancer Research, priority 2008, dated 2016)
